Source: article PMC6736568, “Discovery of Novel Anti-cryptosporidial Activities From Natural Products by in vitro High-Throughput Phenotypic Screening” (Frontiers in Microbiology, 2019)
Like-named read-outs stand apart in the source and are kept apart here.

What was measured:
Cryptosporidium parvum = assay: qRT-PCR assay of the growth of C. parvum in vitro in HCT-8 host cells (primary and secondary screening, EC50); assay type: cell-based; settings: for % Inhibition (3.3 uM): secondary screening at 3.3 uM; for inhibition at 10 µM: Cryptosporidium parvum, HCT-8
[1] = primary screening at 10 uM, from Hs18S ΔCT
[2] = primary screening at 10 uM, treated vs control

Compound | Cytotoxicity (%) (HCT-8 host cells (Hs18S); [1]) | Hs18S ΔCT (HCT-8 host cells (Hs18S); [2]) | Inhibition (%) (Cryptosporidium parvum; primary screening at 10 uM) | other results
BERBAMINE HYDROCHLORIDE | -15.6 | -0.21 | 6.86 | –
KHAYANTHONE | -0.3 | -0.01 | -5.94 | –
HECOGENIN | – | -0.23 | – | –
C=C[C@@](C)(O)CC[C@H]1C(=C)C[C@H](O)[C@H]2C(C)(C)CCC[C@]12C [LARIXOL] | 2.2 | 0.03 | 31.41 | –
C=CCCCCCCCCCCCc1ccco1 [AVOCADENOFURAN] | -32.5 | -0.41 | -21.47 | –
OC[C@@H](O)C(O)[C@H](O)CO [ARABITOL] | -2.6 | -0.04 | 8.73 | –
CC(C)c1c(O)c(-c2cc3c(c(C(C)C)c2O)CCC2C(C)(C)CCC[C@]32C)cc2c1CCC1C(C)(C)CCC[C@]21C (stereo partly drawn) [PODOTOTARIN] | 2.5 | 0.04 | -4.91 | –
COC(=O)C1(C)CCCC2(C)c3ccc(O)c(C(C)C)c3CCC12 (stereo not drawn) [TOTAROL-19-CARBOXYLIC ACID, METHYL ESTER] | 22.4 | 0.37 | -12.62 | –
O=C(O)c1cc(O)c(=O)c2c(O)c(O)c(O)cc2c1 [PURPUROGALLIN-4-CARBOXYLIC ACID] | 7.3 | 0.11 | 2.20 | –
OC[C@H]1O[C@@H](O[C@H]2[C@H](O)[C@@H](O)[C@H](O)O[C@@H]2CO)[C@H](O)[C@@H](O)[C@@H]1O [CELLOBIOSE (D[+])] | – | 0.91 | -5.56 | –
CC(=O)O[C@@H]1C[C@H]2C(C)(C)C(=O)C=C[C@]2(C)[C@H]2CC[C@]3(C)C(=CC(=O)O[C@H]3c3ccoc3)[C@@]21C [DEOXYGEDUNIN] | 15.4 | 0.24 | 28.62 | –
O=c1ccn([C@@H]2O[C@H](COP(=O)([O-])OP(=O)([O-])OP(=O)([O-])O)[C@@H](O)[C@H]2O)c(=O)[nH]1.[Na+].[Na+].[Na+] [URIDINE TRIPHOSPHATE TRISODIUM] | 14.5 | 0.23 | 91.48 | % Inhibition (3.3 uM) (Cryptosporidium parvum): 17%
COC(=O)C[C@H]1C(C)(C)C(=O)[C@@H]2CC3=C(CC[C@]4(C)C3=CC(=O)O[C@H]4c3ccoc3)[C@@]1(C)C2=O [CARAPIN-8(9)-ENE] | – | -0.62 | – | –
Cl.NCCc1ccccc1 [PHENETHYLAMINE HYDROCHLORIDE] | 87.4 | 2.99 | 39.04 | –
COc1cc([C@@H]2c3cc4c(cc3[C@H](OC(C)=O)[C@H]3COC(=O)[C@@H]23)OCO4)cc(OC)c1OC [PICROPODOPHYLLIN ACETATE] | 50.6 | 1.02 | 20.82 | –
CC(=O)OC/C=C(\C)CC/C=C(\C)CC/C=C(\C)CC/C=C(\C)CC/C=C(\C)CC/C=C(\C)CC/C=C(\C)CC/C=C(\C)CCC=C(C)C [SOLANESYL ACETATE] | – | – | 15.24 | Hs18S ΔCT (HCT-8 host cells (Hs18S)): -0.20; Cytotoxicity (%) (HCT-8 host cells (Hs18S); 10 µM): -14.8
O.O=c1ccc2cc(O[C@@H]3OC(CO)[C@@H](O)[C@@H](O)C3O)c(O)cc2o1 (stereo partly drawn) [ESCULIN MONOHYDRATE] | -34.0 | -0.42 | 10.62 | –
OMEGA-3-ACID ESTERS (EPA shown) | – | – | 4.36 | Cytotoxicity (%) (HCT-8 host cells (Hs18S); 10 µM): -17.4%
CC(=O)Oc1ccc2c(C)cc(=O)oc2c1 [ACETYL HYMETOCHROME] | -4.5 | -0.06 | -35.81 | –

Compound | Cytotoxicity (%) (HCT-8 host cells (Hs18S); [1]) | Hs18S ΔCT (HCT-8 host cells (Hs18S); [2]) | Inhibition (%) (Cryptosporidium parvum; primary screening at 10 uM) | other results
COc1cc2oc3cc(OC)c(OC)c(CC=C(C)C)c3c(=O)c2c(O)c1CC=C(C)C [1-HYDROXY-3,6,7-TRIMETHOXY-2,8-DIPRENYLXANTHONE] | 7.7 | 0.12 | -18.05 | –
CC(=O)NCCc1ccc(O)c(-c2c(O)c(O)c3c(c2O)C(=O)c2c(cc(O)c(C(=O)O)c2C(=O)O)C3=O)c1 [LACCAIC ACID A] | -6.6 | – | 21.81 | –
COc1cc2oc3cc(OC)c(OC)c(CC=C(C)C)c3c(=O)c2c(OC)c1CC=C(C)C [MANGOSTIN TRIMETHYL ETHER] | – | – | -8.08 | Hs18S ΔCT (HCT-8 host cells (Hs18S)): 0.00; Cytotoxicity (%) (HCT-8 host cells (Hs18S); 10 µM): -0.1
C=CCSC[C@H](N)C(=O)O [L-DEOXYALLIIN] | -21.9 | -0.29 | 38.80 | –
CC(=O)OCC(OC(C)=O)C(OC(C)=O)C(OC(C)=O)C(OC(C)=O)C(COC(C)=O)OC(C)=O (stereo not drawn) [PERSEITOL HEPTAACETATE] | -10.1 | -0.14 | 0.17 | –
COc1ccc(-c2coc3c4c(c(CC=C(C)C)c(O)c3c2=O)OC(C)(C)C=C4)cc1OC [POMIFERIN DIMETHYL ETHER] | 6.1 | 0.09 | -58.61 | –
COC(=O)C1=CO[C@@H](C)[C@H]2CN3CC[C@]4(C(=O)Nc5ccccc54)[C@@H]3C[C@H]12 [MITRAPHYLLINE] | 11.1 | 0.17 | 41.31 | –
COc1cc(O)c(C(=O)/C=C/c2ccc(O)c(OC)c2)c(OC)c1 [2',4-DIHYDROXY-3,4',6'-TRIMETHOXYCHALCONE] | – | 0.09 | – | –
C=CCc1cc(OC)c2c(c1OC)OCO2 [APIOLE] | – | 0.06 | – | –
ISOTECTORIGENIN, 7-METHYL ETHER | – | – | -18.66 | –
CN1CCc2cc3c(cc2[C@H]1[C@@H]1OC(=O)c2c1ccc1c2OCO1)OCO3 [BICUCULLINE (+)] | -169.4 | -1.43 | – | –
DEGUELIN(-) | 34.2 | 0.60 | 45.04 | –
C[C@]12CC[C@H](O)C[C@@H]1CC[C@@H]1[C@@H]2CC[C@]2(C)C(=O)CC[C@@H]12 [EPIANDROSTERONE] | – | – | – | Hs18S ΔCT (HCT-8 host cells (Hs18S)): -0.05; inhibition at 10 µM (Cryptosporidium parvum): -36%
O=c1cc(-c2ccc(O)cc2)oc2ccc(O)cc12 [6,4'-DIHYDROXYFLAVONE] | 17.9 | 0.28 | 28.18 | –
C=C1CC/C=C(\C)CC[C@@H]2[C@@H]1CC2(C)C [CARYOPHYLLENE [t(-)]] | 20.0 | 0.32 | – | –
COC(=O)[C@H]1[C@H]2C[C@H]3c4[nH]c5ccccc5c4CCN3C[C@@H]2CC[C@@H]1O [CORYNANTHINE] | -53.1 | -0.61 | -58.95 | –
COc1ccc(-c2cc(=O)c3c(OC)c(OC)c(OC)c(OC)c3o2)cc1 [TANGERITIN] | 8.0 | 0.12 | – | –
COc1c(O)cc2oc3cc(O)c(CC=C(C)C)c(O)c3c(=O)c2c1CC=C(C)C [alpha-MANGOSTIN] | 95.1 | 4.36 | – | –
C[C@H](CCC(=O)O)[C@H]1CC[C@H]2[C@@H]3[C@H](O)C[C@@H]4C[C@H](O)CC[C@]4(C)[C@H]3C[C@H](O)[C@]12C [CHOLIC ACID] | – | – | – | inhibition at 10 µM (Cryptosporidium parvum; primary screening at 10 uM, read-out: Inhibition (%)): 26.7%

Compound | Cytotoxicity (%) (HCT-8 host cells (Hs18S); [1]) | Hs18S ΔCT (HCT-8 host cells (Hs18S); [2]) | Inhibition (%) (Cryptosporidium parvum; primary screening at 10 uM) | other results
MONENSIN SODIUM (monensin A is shown) | – | – | 94.05 | % Inhibition (3.3 uM) (Cryptosporidium parvum): 99%
COC1=C(OC)C(=O)C(C/C=C(\C)CC/C=C(\C)CC/C=C(\C)CC/C=C(\C)CC/C=C(\C)CC/C=C(\C)CC/C=C(\C)CC/C=C(\C)CC/C=C(\C)CCC=C(C)C)=C(C)C1=O [UBIDECARENEONE] | 21.3 | 0.35 | – | –
CC[C@H](CC[C@@H](C)[C@H]1CC[C@H]2[C@@H]3CC[C@H]4C[C@@H](O)CC[C@]4(C)[C@H]3CC[C@]12C)C(C)C [FUCOSTANOL] | -61.6 | -0.69 | – | –
CCC(C)C(=O)O[C@@H]1C[C@@]2(C)[C@H](c3ccoc3)OC(=O)CC23OC2(C)OC34[C@H](OC(=O)C(C)C)[C@@]3(O)[C@@H](OC(=O)C5(C)OC5C)[C@@]5(C)C[C@]3(O)[C@@](C)([C@H]5CC(=O)OC)C14O2 (stereo partly drawn) [ENTANDROPHRAGMIN] | – | -0.12 | – | –
COc1cc2c(cc1OC)C1C(=O)c3c(O)cc4c(c3OC1CO2)C=CC(C)(C)O4 (stereo not drawn) [alpha-TOXICAROL (dl)] | – | 0.01 | – | –
CCCCCCCCCCCC[C@@H](C(=O)O)[C@H](C)C(=O)O [ROCCELLIC ACID] | -4.1 | -0.06 | – | –
CNCc1ccccc1.Cl [N-METHYLBENZYLAMINE HYDROCHLORIDE] | – | -0.08 | – | –
COc1cc(/C=C/C(=O)O)cc(OC)c1O [SINAPIC ACID] | – | 0.25 | – | –
CC1(C)C=Cc2c(c3c(c4c(=O)c(-c5ccc(O)c(O)c5)coc24)OC(C)(C)CC3)O1 [ISOPOMIFERIN] | -5.3 | -0.07 | – | –
Cc1c(S(=O)(=O)[O-])oc2c1C(=O)C(=O)c1c-2ccc2c1CCCC2(C)C.[Na+] [TANSHINONE IIA SULFONATE SODIUM] | – | 0.01 | – | –
CC(=O)O[C@H]1C[C@@H](OC(C)=O)C(C)(C)C2C[C@@H](O)[C@]3(C)C(CC[C@@]4(C)[C@H](c5ccoc5)OC(=O)[C@H]5O[C@]543)[C@]21C (stereo partly drawn) [7-DEACETYLKHIVORIN] | -46.2 | -0.55 | – | –
Cc1cc(=O)oc2cc(O)ccc12 [HYMECHROME] | – | -0.28 | – | –
CC1(C)C(=O)C=C[C@]2(C)[C@H]3CC[C@@]4(C)[C@H](c5ccoc5)OC(=O)[C@H]5O[C@]54[C@]3(C)C=C[C@@H]12 [7-DESACETOXY-6,7-DEHYDROGEDUNIN] | – | 5.31 | – | –
CC12CCC(CC1=O)C2(C)C [CAMPHOR (1R)] | – | -0.22 | – | –
COc1cc(/C=C/C(=O)O)ccc1O [FERULIC ACID] | – | -0.04 | – | –
MEPARTRICIN | – | -0.51 | – | –
Cl.NCCC[C@H](N)C(=O)O [ORNITHINE HYDROCHLORIDE] | – | – | -42.36 | –
CN[C@@H](C)[C@H](O)c1ccccc1.Cl [EPHEDRINE (1R,2S) HYDROCHLORIDE] | – | – | 11.97 | –
CC(=O)Oc1cc(-c2coc3cc(OC(C)=O)c(OC(C)=O)c(OC(C)=O)c3c2=O)cc(OC(C)=O)c1OC(C)=O [IRIGINOL HEXAACETATE] | – | -0.17 | – | –
